The target of experiment [1] is T1, Insulin-like growth factor 1 receptor (Homo sapiens, UniProt P08069). Put plainly: Selectivity interaction (Kinase panel (Z-LYTE Assay)) EUB0001632a IGF1R. The settings on record: at 10 µM.
Experiment [2] has as its target Fibroblast growth factor receptor 3 (Homo sapiens, UniProt P22607). Description: (§1) Selectivity interaction (KinomeScan (DiscoverX)) EUB0000595a FGFR3. To be noted: at 10 µM.
Experiment [3] relates to Fibroblast growth factor receptor 3 (Homo sapiens), P22607 [G697C]. The description is as §1. To be noted: at 10 µM.
For experiment [4], the target named is Cyclin-dependent kinase 7 (Homo sapiens, UniProt P50613). Put plainly: Selectivity interaction (KinomeScan (DiscoverX)) EUB0000666a CDK7. The settings on record: at 10 µM.
The target of experiment [5] is T2, Non-receptor tyrosine-protein kinase TNK1 (Homo sapiens) (UniProt Q13470).
T2 sequence (whole entry): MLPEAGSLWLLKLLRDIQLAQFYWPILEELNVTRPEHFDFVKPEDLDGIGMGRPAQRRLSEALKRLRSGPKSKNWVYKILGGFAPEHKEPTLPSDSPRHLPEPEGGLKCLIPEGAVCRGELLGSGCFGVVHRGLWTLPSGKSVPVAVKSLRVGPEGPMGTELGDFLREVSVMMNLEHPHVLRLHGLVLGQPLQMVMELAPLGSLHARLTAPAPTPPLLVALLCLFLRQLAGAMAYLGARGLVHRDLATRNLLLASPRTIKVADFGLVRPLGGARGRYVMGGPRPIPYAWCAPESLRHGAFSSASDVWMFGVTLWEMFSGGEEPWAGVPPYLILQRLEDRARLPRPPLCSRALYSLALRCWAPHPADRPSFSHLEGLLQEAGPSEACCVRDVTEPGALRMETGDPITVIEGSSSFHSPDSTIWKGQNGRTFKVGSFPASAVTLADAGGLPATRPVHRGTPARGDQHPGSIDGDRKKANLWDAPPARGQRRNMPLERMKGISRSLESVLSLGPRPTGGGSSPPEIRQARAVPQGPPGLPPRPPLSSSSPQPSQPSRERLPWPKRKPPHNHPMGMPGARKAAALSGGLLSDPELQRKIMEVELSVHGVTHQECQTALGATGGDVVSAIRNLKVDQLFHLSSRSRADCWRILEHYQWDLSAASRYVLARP
Description: Selectivity interaction (KinomeScan (DiscoverX)) EUB0000045b TNK1.

The subject of experiment [6] is Phosphatidylinositol 4,5-bisphosphate 3-kinase catalytic subunit alpha isoform (Homo sapiens), P42336 [E545A]. Put plainly: (§2) Selectivity interaction (KinomeScan (DiscoverX)) EUB0000045b PIK3CA.
For experiment [7], the system named is Phosphatidylinositol 4,5-bisphosphate 3-kinase catalytic subunit alpha isoform (Homo sapiens), P42336 [C420R]. The description is as §2.
In experiment [8] the test system is Phosphatidylinositol 4,5-bisphosphate 3-kinase catalytic subunit alpha isoform (Homo sapiens), P42336 [Q546K]. The description is as §2.
For experiment [9], the system named is Phosphatidylinositol 4,5-bisphosphate 3-kinase catalytic subunit alpha isoform (Homo sapiens), P42336 [H1047L]. The experiment is described as §2.
For experiment [10], the system named is Phosphatidylinositol 4,5-bisphosphate 3-kinase catalytic subunit alpha isoform (Homo sapiens), P42336 [E545K]. The experiment is described as §2.
The subject of experiment [11] is Phosphatidylinositol 4,5-bisphosphate 3-kinase catalytic subunit alpha isoform (Homo sapiens), P42336 [E542K]. Described as §2.
In experiment [12] the test system is Phosphatidylinositol 4,5-bisphosphate 3-kinase catalytic subunit alpha isoform (Homo sapiens), P42336 [H1047Y]. Described as §2.
In experiment [13] the test system is Phosphatidylinositol 4,5-bisphosphate 3-kinase catalytic subunit alpha isoform (Homo sapiens), P42336 [M1043I]. The experiment is described as §2.
Experiment [14] has as its target Phosphatidylinositol 4,5-bisphosphate 3-kinase catalytic subunit alpha isoform (Homo sapiens) (UniProt P42336). The description is as §2.
For experiment [15], the system named is Phosphatidylinositol 4,5-bisphosphate 3-kinase catalytic subunit alpha isoform (Homo sapiens), P42336 [I800L]. The experiment is described as §2.
Experiment [16] addresses T3, Mitogen-activated protein kinase kinase kinase 2 (Homo sapiens) (UniProt Q9Y2U5).
T3 sequence (whole entry): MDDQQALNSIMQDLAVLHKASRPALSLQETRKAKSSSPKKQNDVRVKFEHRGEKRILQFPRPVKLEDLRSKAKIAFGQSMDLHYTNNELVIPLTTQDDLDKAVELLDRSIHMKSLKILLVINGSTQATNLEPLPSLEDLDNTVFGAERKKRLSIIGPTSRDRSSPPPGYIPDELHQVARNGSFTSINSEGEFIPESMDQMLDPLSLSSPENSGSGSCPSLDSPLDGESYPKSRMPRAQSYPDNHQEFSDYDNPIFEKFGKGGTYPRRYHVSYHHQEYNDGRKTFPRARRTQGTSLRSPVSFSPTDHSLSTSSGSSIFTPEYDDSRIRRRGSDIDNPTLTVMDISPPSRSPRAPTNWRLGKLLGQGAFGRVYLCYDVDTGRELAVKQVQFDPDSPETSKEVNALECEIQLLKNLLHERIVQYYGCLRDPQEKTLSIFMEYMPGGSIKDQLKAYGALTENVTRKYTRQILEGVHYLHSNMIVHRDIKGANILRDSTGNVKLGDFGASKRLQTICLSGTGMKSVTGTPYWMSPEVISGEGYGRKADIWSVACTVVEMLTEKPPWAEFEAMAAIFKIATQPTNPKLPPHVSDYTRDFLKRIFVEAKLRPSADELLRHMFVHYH
Description: Selectivity interaction (KinomeScan (DiscoverX)) EUB0000655a MAP3K2. To be noted: at 10 µM.

Experiment [17] concerns the target T1, Insulin-like growth factor 1 receptor. Description: Selectivity interaction (KinomeScan (DiscoverX)) EUB0000618a IGF1R. To be noted: at 10 µM.
Experiment [18] addresses Histone-lysine N-methyltransferase, H3 lysine-36 specific (Homo sapiens) (UniProt Q96L73). Put plainly: Selectivity interaction (Methyltransferase screen (radiometric assays, panel of 8 PRMTs, 21 protein lysine methyltransferases, 3 DNA methyltransferases, and one RNA methyltransferase)) EUB0000272b NSD1. To be noted: at 10 µM.

Phosphatidylinositol 4,5-bisphosphate 3-kinase catalytic subunit alpha isoform (Homo sapiens), P42336 [I800L], sequence (P42336 whole entry I800L, canonical isoform): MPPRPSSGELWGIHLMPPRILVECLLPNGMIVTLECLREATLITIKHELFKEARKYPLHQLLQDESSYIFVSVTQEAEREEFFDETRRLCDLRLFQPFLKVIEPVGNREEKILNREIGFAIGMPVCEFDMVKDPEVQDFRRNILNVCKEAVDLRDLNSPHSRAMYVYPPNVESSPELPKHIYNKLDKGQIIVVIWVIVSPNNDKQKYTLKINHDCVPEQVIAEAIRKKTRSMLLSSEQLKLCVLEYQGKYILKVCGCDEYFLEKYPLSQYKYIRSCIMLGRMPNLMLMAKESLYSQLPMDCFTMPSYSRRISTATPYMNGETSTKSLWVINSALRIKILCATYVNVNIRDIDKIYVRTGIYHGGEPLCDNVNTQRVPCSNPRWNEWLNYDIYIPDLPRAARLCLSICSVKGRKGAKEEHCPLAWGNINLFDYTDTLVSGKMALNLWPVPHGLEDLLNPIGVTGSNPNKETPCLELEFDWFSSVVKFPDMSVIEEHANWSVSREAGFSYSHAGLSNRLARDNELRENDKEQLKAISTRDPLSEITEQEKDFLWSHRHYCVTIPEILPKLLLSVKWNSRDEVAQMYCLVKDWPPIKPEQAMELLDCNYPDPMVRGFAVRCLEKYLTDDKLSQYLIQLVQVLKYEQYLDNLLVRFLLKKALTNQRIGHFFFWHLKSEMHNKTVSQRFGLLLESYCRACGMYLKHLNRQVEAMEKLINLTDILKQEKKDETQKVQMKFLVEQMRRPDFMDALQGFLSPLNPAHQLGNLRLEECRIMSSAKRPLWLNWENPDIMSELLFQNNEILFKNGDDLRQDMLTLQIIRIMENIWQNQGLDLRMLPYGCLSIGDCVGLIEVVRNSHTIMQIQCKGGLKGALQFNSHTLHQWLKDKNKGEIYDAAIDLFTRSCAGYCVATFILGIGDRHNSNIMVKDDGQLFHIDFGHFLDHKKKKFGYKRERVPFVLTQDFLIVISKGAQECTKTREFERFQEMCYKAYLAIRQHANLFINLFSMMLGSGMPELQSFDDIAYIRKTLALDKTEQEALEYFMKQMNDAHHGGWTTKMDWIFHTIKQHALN
Phosphatidylinositol 4,5-bisphosphate 3-kinase catalytic subunit alpha isoform (Homo sapiens), P42336 [Q546K], sequence (P42336 whole entry Q546K, canonical isoform): as the sequence (P42336 whole entry I800L, canonical isoform) above, with Q546K, L800I counted along it
Phosphatidylinositol 4,5-bisphosphate 3-kinase catalytic subunit alpha isoform (Homo sapiens), P42336 [E545K], sequence (P42336 whole entry E545K, canonical isoform): as the sequence (P42336 whole entry I800L, canonical isoform) above, with E545K, L800I counted along it
Phosphatidylinositol 4,5-bisphosphate 3-kinase catalytic subunit alpha isoform (Homo sapiens), P42336 [E545A], sequence (P42336 whole entry E545A, canonical isoform): as the sequence (P42336 whole entry I800L, canonical isoform) above, with E545A, L800I counted along it
Fibroblast growth factor receptor 3 (Homo sapiens), P22607 [G697C], sequence (P22607 whole entry G697C): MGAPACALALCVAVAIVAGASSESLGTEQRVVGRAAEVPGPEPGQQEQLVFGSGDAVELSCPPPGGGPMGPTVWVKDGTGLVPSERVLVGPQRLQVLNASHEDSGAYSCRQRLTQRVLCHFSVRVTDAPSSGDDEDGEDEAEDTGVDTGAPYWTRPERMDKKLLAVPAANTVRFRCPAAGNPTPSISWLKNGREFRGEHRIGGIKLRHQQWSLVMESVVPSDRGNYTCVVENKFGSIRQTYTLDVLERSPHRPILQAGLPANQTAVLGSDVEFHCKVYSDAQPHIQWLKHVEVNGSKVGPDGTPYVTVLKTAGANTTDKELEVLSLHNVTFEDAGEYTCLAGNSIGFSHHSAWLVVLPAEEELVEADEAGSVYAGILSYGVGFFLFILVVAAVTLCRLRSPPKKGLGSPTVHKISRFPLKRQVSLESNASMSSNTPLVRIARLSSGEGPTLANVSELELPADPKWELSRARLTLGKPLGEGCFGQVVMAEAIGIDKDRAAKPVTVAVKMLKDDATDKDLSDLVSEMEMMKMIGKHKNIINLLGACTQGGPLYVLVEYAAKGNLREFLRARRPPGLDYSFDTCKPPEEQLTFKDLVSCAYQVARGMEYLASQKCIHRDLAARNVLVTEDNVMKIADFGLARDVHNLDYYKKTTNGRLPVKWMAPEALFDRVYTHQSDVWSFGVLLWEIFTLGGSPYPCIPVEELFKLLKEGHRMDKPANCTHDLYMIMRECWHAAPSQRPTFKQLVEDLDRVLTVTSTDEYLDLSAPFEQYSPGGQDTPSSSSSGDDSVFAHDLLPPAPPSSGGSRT

`Cn1cc(-n2cnc3c(NCc4nc5cc(Cl)c(Cl)cc5[nH]4)nc(N4CCOCC4)nc32)cn1` displayed a % of control in [1] of 3.73%.
On to `COCC(=O)NC/C=C/c1ccc2ncnc(Nc3ccc(Oc4ccc(C)nc4)c(C)c3)c2c1` [CP-724714], for which the % of control was 100% in [2] and 90% in experiment [3].
In turn, `O=C(NOC[C@H](O)CO)c1ccc(F)c(F)c1Nc1ccc(I)cc1F` showed a % of control in [4] of 83%.
Regarding `C=CC(=O)Nc1cc(-n2c(=O)ccc3cnc4ccc(-c5ccc(NS(C)(=O)=O)cc5)cc4c32)ccc1C`, the % of control in experiment [5] (at 1 µM) is 100%; in [5] (at 10 µM), 100%; in [6] (at 1 µM) it was 90%; in [6] (at 10 µM), 17%; in experiment [7] (at 1 µM) it was 100%; in [7] (at 10 µM), 32%. For the same compound, the % of control was found to be 100% in experiment [8] (at 1 µM); 35% in experiment [8] (at 10 µM); 100% in experiment [9] (at 1 µM); 86% in [9] (at 10 µM); 100% in experiment [10] (at 1 µM); 74% in [10] (at 10 µM). For the same compound, the % of control came out at 100% in experiment [11] (at 1 µM); 23% in experiment [11] (at 10 µM); 88% in experiment [12] (at 1 µM); 26% in [12] (at 10 µM); 100% in [13] (at 1 µM); 24% in experiment [13] (at 10 µM). Moreover, the % of control came to 68% in experiment [14] (at 1 µM), 9.9% in experiment [14] (at 10 µM), 46% in experiment [15] (at 1 µM) and 7.6% in experiment [15] (at 10 µM).
For `CN(C)CCOc1ccc(-c2nc(-c3ccncc3)c(-c3ccc4c(c3)CC/C4=N\O)[nH]2)cc1`, in [16], the % of control amounted to 69%.
Turning to `O[C@H]1CC[C@H](Nc2ncc3nc(Nc4c(F)cc(F)cc4F)n([C@H]4CCOC4)c3n2)CC1`, the % of control in [17] turned out to be 90%.
For `Cc1cc(C)cc([C@H]2c3cc(C)ccc3NC(=O)CN2C(=O)c2ccc(Br)s2)c1`, the % of activity in experiment [18] is 104%.
